According to US20040220121A1, “Methods for drug delivery” (priority 2003, published 2004):

What was measured:
[1] = test system: JJ5 Breast Cancer cells; assay: Growth inhibition assay of EGF-111In-labeled transferrin composition against JJ5 breast cancer cells; assay type: cell-based, human; settings: 3.5 pCi/cell, cultured 4 days
Experimental: JJ5 breast cancer cells (prepared from BCBM JJ5) expressing approximately 10^6 epidermal growth factor receptors/cell were incubated with EGF-^111In-labeled transferrin composition, unlabeled hEGF or ^111In-oxine, centrifuged to remove free ligand, then assayed and seeded ([…]) into 35 mm culture dishes. Growth medium was added and the cells were cultured at 37° C./5% CO^2 for 4 days. The cells were then recovered by trypsinization and counted in a hemocytometer. Control dishes contained cells cultured in growth medium containing ^111In-DTPA or growth medium alone.

[2] = test system: JJ5 Breast Cancer cells; settings: in vitro
Experimental: The EGF-^111In-labeled transferrin (0.25-80 ng) was incubated with 1.5×10^6 cells/dish JJ5 Breast Cancer (prepared from BCBM JJ5) cells in 1 mL of 0.1% human serum albumin in 35 mm multiwell culture dishes at 37° C. for 30 minutes. The cells were transferred to a centrifuge tube and centrifuged. The cell pellet was separated from the supernatant and counted in a g-scintillation counter to determine bound (B) and free (F) radioactivity. Non-specific binding was determined by conducting the assay in 100 nM hEGF. […] Internalized fraction was measured by determining the proportion of radioactivity which could not be displaced from the cell surface by 100 nM hEGF. Cell-associated binding (surface-binding and intracellular accumulation) was expressed as a percentage of medium radioactivity bound per mg of cell study protein.

With [In+3].[O-]c1cccc2cccnc12.[O-]c1cccc2cccnc12.[O-]c1cccc2cccnc12 [^111In-oxine] the “growth inhibition of the JJ5 cells” value [1] was 91%.
In the case of “EGF-^111In-labeled transferrin composition: human EGF linked via PEG3400-biotin or peptide linker to streptavidin-transferrin, transferrin labeled with 111In”, the “retained by the breast cancer cells” value ([2]; 37° C.) is reported as “at least 24 hours” and the “111In radioactivity lost from the cells” value ([2]; over a 24 hour period at 37° C.) is reported as less than 8%.
